# Patent US12144886B2, “Perineural administration of resiniferatoxin for treatment of maladaptive pain” (Sorrento Therapeutics, Inc., priority 2018, dated 2024)
# Key:
# [1] = test system: declawed cat with maladaptive pain; assay: Client Specific Outcome Measure (CSOM) in a declawed cat after perineural RTX nerve blocks; type: in vivo; parameters: key to CSOM Total score / CSOM Q1 Extending distal limb; “kneading”; stretching / CSOM Q2 Running / CSOM Q3 Jumping down from bed and window: 1 = no problem; 2 = mild difficulty; 3 = moderate; 4 = severe difficulty; 5 = impossible; conditions: one cat; for CSOM Q1 Extending distal limb; “kneading”; stretching / CSOM Q2 Running / CSOM Q3 Jumping down from bed and window / CSOM Total score: 2.5 μg/forelimb perineural
# Procedure: Each dose of 5 μg/cat or 2.5 μg/forelimb will be formulated in 1 cc insulin syringes by diluting 0.1 mL: (2.5 μg) of RTX in 0.9 mL sterile saline for injection immediately before use. For treatment, a total of 1.0 mL (2.5 μg) will be injected as nerve blocks, distributed equally (0.25 ml per injection site) over 4 injection sites for each forelimb.
# Four point nerve blocks are performed by injection of 0.25 mL RTX each into the 1) superficial branches of the radial nerve, 2) dorsal branch of the ulnar nerve, 3) median nerve and superficial branch of the palmar branch of the ulnar nerve, and 4) deep branch of the palmar branch of the ulnar nerve. The nerve blocks for each forelimb are performed following a published technique for locoregional block of the manus in cats (Enomoto et al. (2016) J. Feline Med. Surg. 18:838-845). To block the superficial branches of the radial nerve (RSbr nn), the limb is positioned with the dorsal aspect facing upwards and the carpus in 180° of extension. A 25 G×⅝-inch needle is inserted subcutaneously (SC) from a point at the center of the limb at the level of the antebrachiocarpal joint. The needle is advanced approximately 10 mm SC at a 10-20° angle to the long axis of the limb with the bevel facing up. Once the tip of the needle is 3-5 mm from the confluence point of the accessory cephalic and cephalic veins, the injection is made (0.25 mL). To block the dorsal branch of the ulnar nerve (UDbr n), the limb is positioned with the lateral aspect facing upwards. A point is located lateral to and at the same level as the accessory carpal bone (ACb), positioned between the ACb and the styloid process of the ulna (SpU). A 25 G×⅝-inch needle is inserted SC distal to proximal, so the tip lies at the midpoint of the groove formed between ACb and the SpU, and then the injection is made (0.25 mL). To block the median nerve (M n) and superficial branch of the palmar branch of the ulnar nerve (UPbrS n), the limb is positioned with the palmar aspect facing upwards. A 25 G×⅝-inch needle is inserted SC at the distal border of the carpal pad and approximately 5 mm lateral to it, perpendicular to the long axis of the metacarpus, with the bevel facing up. The needle is inserted SC until the point is located two-thirds of the distance from the lateral aspect of the limb to the medial aspect. Two-thirds of the injectate volume is deposited at this point and the remaining volume is injected while the needle is withdrawn (0.25 mL). Gentle massage is applied to the injected volume under the skin for 5 seconds. To block the deep branch of the palmar branch of the ulnar nerve (UPbrDp n), the limb is positioned with the palmar aspect facing upwards. A 25 G×⅝-inch needle is inserted almost perpendicular to the ACb in a mediolateral direction such that the needle contacts the medial palmar aspect of the midpoint of the ACb with the bevel facing up. The needle is then redirected dorsally and advanced on the medial side of the ACb 2-3 mm until it penetrates the flexor retinaculum, and then the injection is made (0.25 mL).
# The effectiveness of the injection with RTX is assessed at days 3, 7, and 14 using owner videography for qualitative assessment (jumping, manipulation of the limb), and cats will also be evaluated using the Feline Musculoskeletal Pain Index (FMPI) and the Client Specific Outcome Measure (CSOM).
# For CSOM, owners are asked to score three attributes (Q1) Extending distal limb, “kneading”; stretching, (Q2) Running; and (Q3) Jumping down from bed and window using a scale of 1-5 where 1=no problem, 2=mild difficulty, 3=moderate, 4=severe difficulty, and 5=impossible.
# Tolerance, safety, and analgesic effects of RTX administration were evaluated in a single declawed cat with maladaptive pain. […] The cat also presented a self-limiting decreased appetite for 12 hours post injection.
# [2] = test system: declawed cats with chronic distal thoracic limb pain; assay: Adverse events in open-label multicenter trial of perineural RTX in declawed cats; type: in vivo, cat; conditions: for Animals with self-limiting reactions related to the treatment: during recovery from anesthesia
# Procedure: Cats suffering from severe bilateral chronic pain (more than 90 days) as a result of severe complications after onychectomy were enrolled in this study (an exploratory, open-label, multicenter clinical trial). Thirteen (13) cases were treated for initial pain and reduced quality of life (QoL). Then, bilateral perineural distal limb injections (ring block technique) were administered under general anesthesia (a combination of diphenhydramine, buprenorphine, dexmedetomidine, ketamine, and isoflurane). Following a published technique (Enomoto et al., 2016) for the nerve block of the manus of the cat, the total dose of RTX was equally distributed adjacent to the 1) superficial branch of the radial nerve, 2) dorsal branch of the ulnar nerve, 3) median nerve and superficial branch of the palmar branch of the ulnar nerve, and 4) deep branch of palmar branch of the ulnar nerve. A total of 2.5 ug (1.25 ug/1 mL per forelimb in Group 1, n=7) and 5 ug (2.5 ug/1 mL per forelimb in Group 2, n=6) of RTX was injected as a one-time treatment. Group 2 included the cat for which detailed results are provided in Example B above. Monitoring of QoL and pain for the following 28 days was accomplished using the Client-Specific Outcome Measures feline (CSOMf), the Feline Musculoskeletal Pain Index (FMPI), two post-injection physical examinations, and videography on days 3, 7, 14, and 28 post injections.
smiles,measurement,setting,value
"C=C(C)[C@]12C[C@@H](C)[C@@]34O[C@](Cc5ccccc5)(O[C@@H]1[C@@H]3C=C(COC(=O)Cc1ccc(O)c(OC)c1)C[C@]1(O)C(=O)C(C)=C[C@@H]41)O2 [RTX, resiniferatoxin]",CSOM Q1 Extending distal limb; “kneading”; stretching,[1]; Day 0 (baseline),3
same,CSOM Q2 Running,[1]; Day 0 (baseline),3
same,CSOM Q3 Jumping down from bed and window,[1]; Day 0 (baseline),2
same,CSOM Total score,[1]; Day 0 (baseline),8
same,CSOM Q1 Extending distal limb; “kneading”; stretching,[1]; Day 3,2
same,CSOM Q2 Running,[1]; Day 3,3
same,CSOM Q3 Jumping down from bed and window,[1]; Day 3,2
same,CSOM Total score,[1]; Day 3,7
same,CSOM Q1 Extending distal limb; “kneading”; stretching,[1]; Day 7,1
same,CSOM Q2 Running,[1]; Day 7,2
same,CSOM Q3 Jumping down from bed and window,[1]; Day 7,2
same,CSOM Total score,[1]; Day 7,5
same,CSOM Q1 Extending distal limb; “kneading”; stretching,[1]; Day 14,2
same,CSOM Q2 Running,[1]; Day 14,2
same,CSOM Q3 Jumping down from bed and window,[1]; Day 14,2
same,CSOM Total score,[1]; Day 14,6
same,CSOM Q1 Extending distal limb; “kneading”; stretching,[1]; Screening (baseline),3
same,CSOM Q2 Running,[1]; Screening (baseline),3
same,CSOM Q3 Jumping down from bed and window,[1]; Screening (baseline),2
same,CSOM Total score,[1]; Screening (baseline),8
same,"CSOM: extending distal limb, kneading, stretching and running",[1]; after injection,showed improvement
same,Tolerability of perineural RTX at the described doses,[2]; 2.5 ug and 5 ug total per cat,well tolerated
same,Adverse event: hypersalivation,[2]; Group 1 (2.5 ug total),71.4%
same,Adverse event: panting,[2]; Group 1 (2.5 ug total),57.1%
same,Adverse event: vocalization,[2]; Group 1 (2.5 ug total),57.1%
same,AEs presented and resolved the same day of administration,"[2]; Group 1 (2.5 ug total), 26/30",86.6%
same,Animals with self-limiting reactions related to the treatment,"[2]; Group 1 (2.5 ug total, 1.25 ug per forelimb, n=7)",71.4%
same,Adverse event: hypersalivation,[2]; Group 2 (5 ug total),50%
same,Adverse event: panting,[2]; Group 2 (5 ug total),83.3%
same,Adverse event: vocalization,[2]; Group 2 (5 ug total),83.3%
same,AEs presented and resolved the same day of administration,"[2]; Group 2 (5 ug total), 21/22",95.4%
same,Animals with self-limiting reactions related to the treatment,"[2]; Group 2 (5 ug total, 2.5 ug per forelimb, n=6)",100%
same,AEs presented and resolved the same day of administration,[2]; both groups,more than 85%
same,Time to resolution of most common adverse events after treatment,[2]; both groups,≤ 4 h
